The assay has as its target ROCK2 (Homo sapiens (Human), UniProt O75116). Briefly: biochemical.
Chain of ROCK2 (O75116 whole entry, species assumed): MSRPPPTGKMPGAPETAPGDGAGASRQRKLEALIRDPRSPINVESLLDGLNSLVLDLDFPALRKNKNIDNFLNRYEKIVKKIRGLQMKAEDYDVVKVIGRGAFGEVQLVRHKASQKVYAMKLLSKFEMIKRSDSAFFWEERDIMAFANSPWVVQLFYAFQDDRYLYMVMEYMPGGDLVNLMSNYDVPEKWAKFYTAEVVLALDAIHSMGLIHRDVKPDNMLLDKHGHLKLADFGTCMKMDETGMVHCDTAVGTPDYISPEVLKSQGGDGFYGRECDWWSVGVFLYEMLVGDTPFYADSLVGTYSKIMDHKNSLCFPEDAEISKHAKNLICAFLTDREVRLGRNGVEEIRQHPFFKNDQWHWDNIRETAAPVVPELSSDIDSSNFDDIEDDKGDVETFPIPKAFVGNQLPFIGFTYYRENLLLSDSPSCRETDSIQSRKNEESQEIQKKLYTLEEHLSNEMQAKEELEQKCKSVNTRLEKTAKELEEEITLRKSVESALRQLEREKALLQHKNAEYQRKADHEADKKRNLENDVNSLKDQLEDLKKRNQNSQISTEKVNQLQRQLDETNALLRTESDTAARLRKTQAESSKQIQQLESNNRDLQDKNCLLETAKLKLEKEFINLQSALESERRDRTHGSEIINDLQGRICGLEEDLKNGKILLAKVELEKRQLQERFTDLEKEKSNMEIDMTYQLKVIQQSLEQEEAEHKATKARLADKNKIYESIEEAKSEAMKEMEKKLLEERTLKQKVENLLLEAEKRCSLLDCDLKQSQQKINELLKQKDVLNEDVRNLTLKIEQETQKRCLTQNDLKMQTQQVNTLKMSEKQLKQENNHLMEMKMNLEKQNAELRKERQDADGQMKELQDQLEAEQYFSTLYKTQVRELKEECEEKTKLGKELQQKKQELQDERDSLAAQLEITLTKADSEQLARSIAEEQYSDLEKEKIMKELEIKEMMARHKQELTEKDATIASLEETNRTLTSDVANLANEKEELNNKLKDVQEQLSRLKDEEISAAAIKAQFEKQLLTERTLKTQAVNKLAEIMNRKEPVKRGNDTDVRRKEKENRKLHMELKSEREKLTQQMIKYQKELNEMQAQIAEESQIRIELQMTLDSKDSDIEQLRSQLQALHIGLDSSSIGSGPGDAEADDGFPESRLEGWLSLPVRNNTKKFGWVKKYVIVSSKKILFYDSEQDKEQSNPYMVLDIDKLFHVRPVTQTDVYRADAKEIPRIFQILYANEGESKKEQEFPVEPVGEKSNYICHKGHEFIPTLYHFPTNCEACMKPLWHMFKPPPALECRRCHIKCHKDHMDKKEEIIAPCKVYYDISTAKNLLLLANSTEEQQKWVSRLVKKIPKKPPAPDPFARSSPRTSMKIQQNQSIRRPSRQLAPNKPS
As a reminder, the IC50 is the concentration that gives 50% inhibition. A high value points to lower potency. Molecule `COc1cc(NC2CCN(c3ccc(-c4cn[nH]c4)nc3)C2=O)ccc1F` (single isomer, unassigned) [Example 299, 1-(6-(1H-pyrazol-4-yl)pyridin-3-yl)-3-((4-fluoro-3-methoxyphenyl)amino)pyrrolidin-2-one] registered an IC50 of 10 to 100 nM. The value for `COc1cc(F)cc(NC2CCN(c3ccc(-c4cn[nH]c4)nc3)C2=O)c1` (single isomer, unassigned) [Example 301, 1-(6-(1H-pyrazol-4-yl)pyridin-3-yl)-3-((3-fluoro-5-methoxyphenyl)amino)pyrrolidin-2-one] was 10 to 100 nM; that for `COc1cc(F)cc(NC2CCN(c3ccc(-c4cn[nH]c4)nc3)C2=O)c1` (single isomer, unassigned) [Example 302, 1-(6-(1H-pyrazol-4-yl)pyridin-3-yl)-3-((3-fluoro-5-methoxyphenyl)amino)pyrrolidin-2-one] was below 10 nM. Regarding `COc1ccc(F)c(NC2CCN(c3ccc(-c4cn[nH]c4)cn3)C2=O)c1` (single isomer, unassigned) [Example 303, 1-(5-(1H-pyrazol-4-yl)pyridin-2-yl)-3-((2-fluoro-5-methoxyphenyl)amino)pyrrolidin-2-one], the IC50 was 10 to 100 nM.

In the case of `COc1cccc(NC2CCN(c3ccc(-c4cn[nH]c4)c(F)c3F)C2=O)c1` (single isomer, unassigned) [Example 305, 1-(2,3-difluoro-4-(1H-pyrazol-4-yl)phenyl)-3-((3-methoxyphenyl)amino) pyrrolidin-2-one], the IC50 is 10 to 100 nM. With `COc1cccc(NC2CCN(c3ccc(-c4cn[nH]c4)c(F)c3F)C2=O)c1` (single isomer, unassigned) [Example 306, 1-(2,3-difluoro-4-(1H-pyrazol-4-yl)phenyl)-3-((3-methoxyphenyl)amino) pyrrolidin-2-one], the IC50 was below 10 nM.

`COc1cc(NC2CCN(c3ccc(-c4cn[nH]c4)c(F)c3F)C2=O)ccc1F` (single isomer, unassigned) [Example 307, 1-(2,3-difluoro-4-(1H-pyrazol-4-yl)phenyl)-3-((4-fluoro-3-methoxyphenyl)amino)pyrrolidin-2-one] came in with an IC50 of 10 to 100 nM.

For the molecule `COc1cc(F)cc(NC2CCN(c3ccc(-c4cn[nH]c4)c(F)c3F)C2=O)c1` (single isomer, unassigned) [Example 309, 1-(2,3-difluoro-4-(1H-pyrazol-4-yl)phenyl)-3-((3-fluoro-5-methoxyphenyl)amino)pyrrolidin-2-one], the IC50 lay within 10 to 100 nM. Molecule `COc1cc(F)cc(NC2CCN(c3ccc(-c4cn[nH]c4)c(F)c3F)C2=O)c1` (single isomer, unassigned) [Example 310, 1-(2,3-difluoro-4-(1H-pyrazol-4-yl)phenyl)-3-((3-fluoro-5-methoxyphenyl)amino)pyrrolidin-2-one] registered an IC50 below 10 nM. On to `COc1cccc(NC2CCN(c3cc(F)c(-c4cn[nH]c4)c(F)c3)C2=O)c1` (single isomer, unassigned) [Example 311, 1-(3,5-difluoro-4-(1H-pyrazol-4-yl)phenyl)-3-((3-methoxyphenyl)amino)pyrrolidin-2-one], for which the IC50 was below 10 nM.

Molecule `CCc1nc(N2CCC(Nc3cccc(OC)c3)C2=O)ccc1-c1cn[nH]c1` (single isomer, unassigned) [Example 313, 1-(6-ethyl-5-(1H-pyrazol-4-yl)pyridin-2-yl)-3-((3-methoxyphenyl)amino) pyrrolidin-2-one] displayed an IC50 below 10 nM. With `CCc1nc(N2CCC(Nc3cc(F)cc(OC)c3)C2=O)ccc1-c1cn[nH]c1` (single isomer, unassigned) [Example 315, 1-(6-ethyl-5-(1H-pyrazol-4-yl)pyridin-2-yl)-3-((3-fluoro-5-methoxyphenyl)amino) pyrrolidin-2-one], the IC50 was in the range of 10 to 100 nM. `CCc1nc(N2CCC(Nc3cc(F)cc(OC)c3)C2=O)ccc1-c1cn[nH]c1` (single isomer, unassigned) [Example 316, 1-(6-ethyl-5-(1H-pyrazol-4-yl)pyridin-2-yl)-3-((3-fluoro-5-methoxyphenyl)amino) pyrrolidin-2-one]: the IC50 is below 10 nM. For the molecule `CCc1nc(N2CCC(Nc3ccc(F)c(OC)c3)C2=O)ccc1-c1cn[nH]c1` (single isomer, unassigned) [Example 317, 1-(6-ethyl-5-(1H-pyrazol-4-yl)pyridin-2-yl)-3-((4-fluoro-3-methoxyphenyl)amino) pyrrolidin-2-one], the IC50 is below 10 nM. Turning to `CCc1nc(N2CCC(Nc3ccc(F)c(OC)c3)C2=O)ccc1-c1cn[nH]c1` (single isomer, unassigned) [Example 318, 1-(6-ethyl-5-(1H-pyrazol-4-yl)pyridin-2-yl)-3-((4-fluoro-3-methoxyphenyl)amino) pyrrolidin-2-one], the IC50 lay within 10 to 100 nM. The figure for `O=C1C(Nc2cccc(OCC3CC3)c2)CCN1c1ccc(-c2cn[nH]c2)cn1` (single isomer, unassigned) [Example 319, 1-(5-(1H-pyrazol-4-yl)pyridin-2-yl)-3-((3-(cyclopropylmethoxy)phenyl)amino) pyrrolidin-2-one] is 10 to 100 nM; for `O=C1C(Nc2cccc(OCC3CC3)c2)CCN1c1ccc(-c2cn[nH]c2)cn1` (single isomer, unassigned) [Example 320, 1-(5-(1H-pyrazol-4-yl)pyridin-2-yl)-3-((3-(cyclopropylmethoxy)phenyl)amino) pyrrolidin-2-one] it is 100 to 2200 nM. Molecule `O=C1C(Nc2cccc(OC(F)F)c2)CCN1c1ccc(-c2cn[nH]c2)cn1` (single isomer, unassigned) [Example 321, 1-(5-(1H-pyrazol-4-yl)pyridin-2-yl)-3-((3-(difluoromethoxy)phenyl)amino) pyrrolidin-2-one] returned an IC50 of 100 to 2200 nM. As for `O=C1C(Nc2cccc(OC(F)F)c2)CCN1c1ccc(-c2cn[nH]c2)cn1` (single isomer, unassigned) [Example 322, 1-(5-(1H-pyrazol-4-yl)pyridin-2-yl)-3-((3-(difluoromethoxy)phenyl)amino) pyrrolidin-2-one], the IC50 was 10 to 100 nM.

`COc1cccc(NC2C(=O)N(c3ccc(-c4cn[nH]c4)cc3)C[C@H]2CO)c1` (single isomer, unassigned) [Example 323] returned an IC50 below 10 nM.

The molecule `COc1cccc(NC2CCN(c3ccc(-c4cn[nH]c4)cc3)C2=O)c1C` (single isomer, unassigned) [Example 325, 1-(4-(1H-pyrazol-4-yl)phenyl)-3-((3-methoxy-2-methylphenyl)amino) pyrrolidin-2-one] gave an IC50 of 10 to 100 nM.

In turn, `COc1cccc(NC2CCN(c3ccc(-c4cn[nH]c4)cc3F)C2=O)c1` (single isomer, unassigned) [Example 328, 1-(2-fluoro-4-(1H-pyrazol-4-yl)phenyl)-3-((3-methoxyphenyl)amino)pyrrolidin-2-one] displayed an IC50 of 10 to 100 nM. As to `COc1cc(NC2CCN(c3ccc(-c4cn[nH]c4)cc3F)C2=O)ccc1F` (single isomer, unassigned) [Example 330, 3-((4-fluoro-3-methoxyphenyl)amino)-1-(2-fluoro-4-(1H-pyrazol-4-yl)phenyl) pyrrolidin-2-one], the IC50 lay within 10 to 100 nM. Consider `COc1cc(NC2CCN(c3ccc(-c4cn[nH]c4)c(F)c3)C2=O)ccc1F` (single isomer, unassigned) [Example 332, 3-((4-fluoro-3-methoxyphenyl)amino)-1-(3-fluoro-4-(1H-pyrazol-4-yl)phenyl) pyrrolidin-2-one], for which the IC50 was below 10 nM.

On to `COc1ccc(F)c(NC2CCN(c3ccc(-c4cn[nH]c4)c(F)c3)C2=O)c1` (single isomer, unassigned) [Example 334, 1-(3-fluoro-4-(1H-pyrazol-4-yl)phenyl)-3-((2-fluoro-5-methoxyphenyl)amino) pyrrolidin-2-one], for which the IC50 was in the range of 10 to 100 nM. `COc1c(F)cccc1NC1CCN(c2ccc(-c3cn[nH]c3)c(F)c2)C1=O` (single isomer, unassigned) [Example 336, 3-((3-fluoro-2-methoxyphenyl)amino)-1-(3-fluoro-4-(1H-pyrazol-4-yl)phenyl) pyrrolidin-2-one]: the IC50 is below 10 nM. For the molecule `COc1c(F)cccc1NC1CCN(c2ccc(-c3cn[nH]c3)c(F)c2)C1=O` (single isomer, unassigned) [Example 337, 3-((3-fluoro-2-methoxyphenyl)amino)-1-(3-fluoro-4-(1H-pyrazol-4-yl)phenyl) pyrrolidin-2-one], the IC50 lay within 100 to 2200 nM. The value for `COc1cc(F)cc(NC2CCN(c3ccc(-c4cn[nH]c4)cc3F)C2=O)c1` (single isomer, unassigned) [Example 338, 1-(2-fluoro-4-(1H-pyrazol-4-yl)phenyl)-3-((3-fluoro-5-methoxyphenyl)amino) pyrrolidin-2-one] was 10 to 100 nM; that for `COc1ccc(F)c(NC2CCN(c3ccc(-c4cn[nH]c4)cc3F)C2=O)c1` (single isomer, unassigned) [Example 340, 1-(2-fluoro-4-(1H-pyrazol-4-yl)phenyl)-3-((2-fluoro-5-methoxyphenyl)amino) pyrrolidin-2-one] was 100 to 2200 nM; that for `COc1ccc(F)c(NC2CCN(c3ccc(-c4cn[nH]c4)cc3F)C2=O)c1` (single isomer, unassigned) [Example 341, 1-(2-fluoro-4-(1H-pyrazol-4-yl)phenyl)-3-((2-fluoro-5-methoxyphenyl)amino) pyrrolidin-2-one] was 10 to 100 nM.

`COc1c(F)cccc1NC1CCN(c2ccc(-c3cn[nH]c3)cc2F)C1=O` (single isomer, unassigned) [Example 342, 3-((3-fluoro-2-methoxyphenyl)amino)-1-(2-fluoro-4-(1H-pyrazol-4-yl)phenyl) pyrrolidin-2-one] displayed an IC50 of 100 to 2200 nM. `COc1ccc(NC2CCN(c3ccc(-c4cn[nH]c4)cc3F)C2=O)cc1F` (single isomer, unassigned) [Example 344, 1-(2-fluoro-4-(1H-pyrazol-4-yl)phenyl)-3-((3-fluoro-4-methoxyphenyl)amino) pyrrolidin-2-one] displayed an IC50 of 100 to 2200 nM.

In turn, `COc1cc(NC2CCN(c3cc(F)c(-c4cn[nH]c4)cc3F)C2=O)ccc1F` (single isomer, unassigned) [Example 349, 1-(2,5-difluoro-4-(1H-pyrazol-4-yl)phenyl)-3-((4-fluoro-3-methoxyphenyl)amino)pyrrolidin-2-one] showed an IC50 of 10 to 100 nM.
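Also: rho kinase enzyme reaction halted with EDTA, phospho- and non-phospho peptide separated for read-out, kinase activity inhibition derived across a dose-response series, DMSO under 2%.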
